In patent US20100240594A1, “TARGETED DELIVERY OF CHEMOTHERAPEUTIC AGENTS” (Burnham Institute for Medical Research, priority 2009, published 2010):

System: pre-established subcutaneous PC3 tumors
Experiment: Tumor growth in PC3 tumor-bearing mice treated i.v. twice a week
Assay type: in vivo, SCID-beige mice
Settings: i.v. twice weekly from day 19 for ~3 weeks; taxol 5 mg/Kg, doxorubicin 2 mg/Kg, YSA conjugates at 1 and 5 fold molar equivalents of the parent drug dose
Description: Tumor sizes were measured and averages +/−SE are shown. The data in (A) and (B) are from the same experiment and share the same control.

Row | SMILES | tumor growth inhibition compared with vehicle control
1 | COc1cccc2c1C(=O)c1c(O)c3c(c(O)c1C2=O)C[C@@](O)(C(=O)CO)C[C@@H]3O[C@H]1C[C@H](N)[C@H](O)[C@H](C)O1 [doxorubicin] | not significantly different from vehicle control
2 | CC(=O)O[C@H]1C(=O)[C@@]2(C)[C@H]([C@H](OC(=O)c3ccccc3)[C@]3(O)C[C@H](OC(=O)[C@H](O)[C@@H](NC(=O)c4ccccc4)c4ccccc4)C(C)=C1C3(C)C)[C@]1(OC(C)=O)CO[C@@H]1C[C@@H]2O [taxol] | not significantly different from vehicle control
